Source: patent US7973079B2, “Methods and compounds for treating retinol-related diseases” (Revision Therapeutics, Inc., priority 2007, dated 2011)

Legend:
RBP4-TTR interaction = RBP4-TTR interaction (Homo sapiens, UniProt P02753); experiment: High throughput in vitro assay detecting inhibition of RBP-TTR interaction; format: binding; conditions: Table 1, read-out: Apparent 50 IC
Description: In some embodiments, the modulators disclosed herein are also used in in vitro assays for detecting perturbations in RBP or TTR activity. For example, the modulator is added to a sample comprising RBP, TTR and retinol to detect complex disruption. A component, for example, RBP, TTR, retinol or the modulator, is labeled to determine if disruption of complex formation occurs. For example, complex formation and subsequent disruption is detected and/or measured through conventional means, such as the sandwich assays disclosed above. Other detection systems are also used to detect modulation of RBP or TTR binding, for example, FRET detection of RBP-TTR-retinol complex formation.
The optimal dose of compounds of Formula (I) or (II) to block formation of A2E in abca4-1 mice is determined using a standard dose escalation study. In order to determine the range of doses which will be employed, a high throughput, in vitro assay which detects modulators that inhibit RBP-TTR interaction has been developed. […] An illustrative in vivo approach, utilizing a compound having the structure of Formula (I) or (II) is presented below.

[1] = tested on: panel of six cytochrome P450 isozymes; experiment: Cytochrome P450 inhibition profile (panel of six isozymes); format: in vitro ADME
RBP4+/+, ABCA4−/− mice = experiment: Serum retinol in HPR-treated mice compared with genetic reduction of RBP4; format: in vivo; conditions: HPR for a 28-day period, ABCA4+/− mice (>50% reduction)
Description: FIG. 6. Genetic modulation of RBP4 in abca4 mutant mice: effects on serum retinol, RBP4 and toxic retinal fluorophores. A line of mice which expresses heterozygous mutations in RBP4 and ABCA4 (RBP4+/−, ABCA4+/−) was generated in order to determine if genetic reduction of RBP4 would be sufficient to reduce serum levels of retinol, RBP4 and toxic retinal fluorophores within the RPE. Serum retinol concentrations in RBP4+/−, ABCA4+/− mice were reduced by greater than 50% compared to mice with the normal complement of RBP (RBP4+/+, ABCA4−/−). […] Reductions in serum retinol correlated directly with reductions in RBP4, as determined by immunoblot analysis. Western blot identification of RBP4 in the various mouse lines is shown in panel B. Histological analysis were also performed. Tissue sections from RBP4+/+, ABCA4+/− mice (panel C), RBP4+/−, ABCA4+/− (panel D) and RBP4+/+, ABCA4+/+ (panel E) were analyzed by fluorescence microscopy.
Exploration of a non-pharmacological means of reducing lipofuscin fluorophores in order to validate our therapeutic approach based upon reduction of RBP levels in a patient will be performed. In this study, RBP protein levels will be reduced through genetic manipulation. Two new lines of mice expressing heterozygous mutations in retinol binding protein (RBP4) are generated. […]

SMILES: CC(C)(C)c1cc(Cl)ccc1OCCCCC(=O)Nc1ccc(CC(=O)O)cc1 [2-(4-(5-(2-tert-butyl-4-chlorophenoxy)pentanamido)phenyl)acetic acid]
- IC50 (RBP4-TTR interaction): 1000 nM
- inhibition at 2 μM [1]: < 10%

SMILES: CC(C)(C)c1cc(Cl)ccc1OCC1CCC(C(=O)Nc2ccc(O)cc2)C1 (centres unmarked) [3-((2-tert-butyl-4-chlorophenoxy)methyl)-N-(4-hydroxyphenyl)cyclopentanecarboxamide]
- inhibition at 2 μM [1]: < 10%

SMILES: CC(C)(C)c1cc(Cl)ccc1OCC1CCCC(C(=O)O)C1 (centres unmarked) [3-((2-tert-butyl-4-chlorophenoxy)methyl)cyclohexanecarboxylic acid]
- IC50 (RBP4-TTR interaction): 160 nM
- inhibition at 2 μM [1]: < 10%

SMILES: CC(C)(C)c1cc(Cl)ccc1OCC1CCC(C(=O)O)C1 (centres unmarked) [3-((2-tert-butyl-4-chlorophenoxy)methyl)cyclopentanecarboxylic acid]
- IC50 (RBP4-TTR interaction): 400 nM
- inhibition at 2 μM [1]: < 10%

SMILES: CC(C)(C)c1cc(Cl)ccc1OCCCC(=O)O [4-(2-tert-butyl-4-chlorophenoxy)butanoic acid]
- IC50 (RBP4-TTR interaction): 1000 nM
- inhibition at 2 μM [1]: ~15%

SMILES: CC(C)(C)c1cc(Cl)ccc1OCC1CCC(C(=O)Nc2ccc(C(=O)O)cc2)C1 (centres unmarked) [4-(3-((2-tert-butyl-4-chlorophenoxy)methyl)cyclopentanamido)benzoic acid]
- inhibition at 2 μM [1]: < 10%

SMILES: CC(C)(C)c1cc(Cl)ccc1OCCCCC(=O)Nc1ccc(C(=O)O)cc1 [4-(5-(2-tert-Butyl-4-chlorophenoxy)pentanamido)benzoic acid]
- inhibition at 2 μM [1]: < 10%

SMILES: CC(C)(C)c1cc(Cl)ccc1OCCCCC(=O)Nc1ccc(O)cc1 [5-(2-tert-Butyl-4-chlorophenoxy)-N-(4-hydroxyphenyl)pentanamide]
- IC50 (RBP4-TTR interaction): 1000 nM
- inhibition at 2 μM [1]: ~50%

SMILES: CC(C)(C)c1cc(Cl)ccc1OCCCCC(=O)O [5-(2-tert-Butyl-4-chlorophenoxy)pentanoic Acid]
- IC50 (RBP4-TTR interaction): 100 nM
- inhibition at 2 μM [1]: ≤ 10%

SMILES: CC(C)(C)c1cc(Cl)ccc1OCCCCCCC(=O)Nc1ccc(O)cc1 [7-(2-tert-butyl-4-chlorophenoxy)-N-(4-hydroxyphenyl)heptanamide]
- IC50 (RBP4-TTR interaction): 1000 nM
- inhibition at 2 μM [1]: ~40%

SMILES: CC(C)(C)c1cc(Cl)ccc1OCCCCCCC(=O)O [7-(2-tert-butyl-4-chlorophenoxy)heptanoic acid]
- IC50 (RBP4-TTR interaction): 500 nM
- inhibition at 2 μM [1]: ~15%

SMILES: CC1=C(/C=C/C(C)=C/C=C/C(C)=C/C(=O)Nc2ccc(O)cc2)C(C)(C)CCC1 [HPR, fenretinide]
- degree of serum retinol reduction (RBP4+/+, ABCA4−/− mice): comparable
